Laboratory results reported in patent US4308210A, “Nanaomycin B and therapeutic compositions containing same” (The Kitasato Institute, priority 1976, dated 1981).
≈ marks a conversion by molar mass, not a printed value. Entries after “also recorded” stand apart in the source; their conditions may differ.

Columns and labels:
[1] = tested on: Microsporum gypseum; experiment: Antifungal activity, agar dilution method; assay type: cell-based; conditions: Nannizzia gypsea, 96 h, potato agar, pH 6.4, 27° C., 4 days, read-out: Minimal Inhibitory Con.
Description: (§1) Minimal inhibitory concentration is assayed by agar dilution method
(§2) (potato agar, pH 6.4, 27° C., 4 days)

[2] = tested on: Trichophyton violaceum; experiment: Antifungal activity, agar dilution method; assay type: cell-based; conditions: Trichophyton violaceum, 96 h, potato agar, pH 6.4, 27° C., 4 days, read-out: Minimal Inhibitory Con.
Description: as §1, §2

[3] = tested on: Aspergillus niger; experiment: Antifungal activity, agar dilution method; assay type: cell-based; conditions: Aspergillus niger, 96 h, potato agar, pH 6.4, 27° C., 4 days, read-out: Minimal Inhibitory Con.
Description: as §1, §2

[4] = tested on: Trichophyton ferrugineum; experiment: Antifungal activity, agar dilution method; assay type: cell-based; conditions: Microsporum ferrugineum, 96 h, potato agar, pH 6.4, 27° C., 4 days, read-out: Minimal Inhibitory Con.
Description: as §1, §2

[5] = tested on: Aspergillus fumigatus IAM 2612; experiment: Antimicrobial spectrum, MIC, potato agar; assay type: cell-based; conditions: IAM2612, 96 h, potato agar (pH 6.4, 4 days, 27° C.)
[6] = tested on: Gram-positive bacteria such as, for example Staphylococcus aureus; experiment: Growth inhibition of Gram-positive bacteria (text summary of Table 1); assay type: cell-based
[7] = Activity of nanaomycin B itself; conditions: in words
[8] = tested on: Mycoplasma gallisepticum; experiment: Growth inhibition of Mycoplasma gallisepticum (text summary of Table 1); assay type: cell-based; conditions: Mycoplasmoides gallisepticum, 192 h, read-out: growth inhibited at a concentration
Description: (§3) H Hokken PPLO agar (pH 7.8, 8 days, 37° C.)
(§4) E Eiken PPLO agar (pH 7.8, 8 days, 37° C.)
(§5) MIC Minimal inhibitory concentration

[9] = tested on: Bacillus subtillis PCI 219; experiment: Antimicrobial spectrum, MIC, nutrient agar; assay type: cell-based; conditions: PCI219, 48 h, nutrient agar (pH 7.0, 2 days, 37° C.)
[10] = tested on: Trichophyton mentagrophytes; experiment: Antimicrobial spectrum, MIC, potato agar; assay type: cell-based; conditions: 96 h, potato agar (pH 6.4, 4 days, 27° C.)
[11] = tested on: Trichophyton roseum; experiment: Antimicrobial spectrum, MIC, potato agar; assay type: cell-based; conditions: 96 h, potato agar (pH 6.4, 4 days, 27° C.)
[12] = tested on: mycoplasma; experiment: Activity against mycoplasma; assay type: cell-based; conditions: in words
Description: as §3, §4, §5

[13] = tested on: fungi (Test Organisms of Table 4); experiment: Antifungal activity, comparison in words (Table 4); assay type: cell-based
[14] = tested on: Trichophyton rubrum; experiment: Antimicrobial spectrum, MIC, potato agar; assay type: cell-based; conditions: 96 h, potato agar (pH 6.4, 4 days, 27° C.)
[15] = tested on: Trichophyton ferrugineum; experiment: Antimicrobial spectrum, MIC, potato agar; assay type: cell-based; conditions: Microsporum ferrugineum, 96 h; potato agar (pH 6.4, 4 days, 27° C.)
[16] = tested on: Mycoplasma gallisepticum; experiment: Therapeutic effect on chronic respiratory disease of chickens; assay type: in vivo
[17] = tested on: Trichophyton pedis 804; experiment: Antimicrobial spectrum, MIC, potato agar; assay type: cell-based; conditions: Trichophyton pedis, 804, 96 h; potato agar (pH 6.4, 4 days, 27° C.)
[18] = Conversion of nanaomycin B into nanaomycin A depending on pH; assay type: physicochemical
Description: Nanaomycin B (200 mg) is dissolved in 60 ml of 0.1 N sodium hydroxide and the solution is allowed to stand for 10 minutes. After adjusting to pH 2.0 with 6 N hydrochloric acid, the product is extracted with ethyl acetate. The extract is evaporated and orange yellow needles are obtained from an ethanol solution of the product. The compound is identified as nanaomycin A by the melting point, IR spectrum and thin-layer chromatography.

[19] = tested on: Mycoplasma pneumonia; experiment: Antimicrobial spectrum, MIC, PPLO agar; assay type: cell-based; conditions: 192 h, Eiken PPLO agar (pH 7.8, 8 days, 37° C.)
Description: as §4, §5

[20] = tested on: Trichophyton verrucosum; experiment: Treatment of dermatomycosis of cattle caused by mass infection; assay type: in vivo; design: key: +++: complete removal of scales and recovered; ++: a little scales remained; +: removal of a part of scales; -: no removal of scale and no recovery
Description: When dermatomycosis of cattle caused by mass infection of Trichophyton verrucosum is treated with nanaomycin B, nanaomycin B is dissolved or suspended in a suitable carrier, for example, olive oil, and is coated on the affected part directly with or without removal of the scales. […] The results obtained by coating nanaomycin B once and by twice coatings (the second coating is carried out a week after the first coating) are shown in tables 2 and 3, respectively.

[21] = tested on: Trichophyton purpureum; experiment: Antimicrobial spectrum, MIC, potato agar; assay type: cell-based; conditions: 96 h, potato agar (pH 6.4, 4 days, 27° C.)
[22] = tested on: Staphylococcus aureus FDA 209P (JC-1); experiment: Antimicrobial spectrum, MIC, nutrient agar; assay type: cell-based; conditions: FDA209P, 48 h, nutrient agar (pH 7.0, 2 days, 37° C.)
[23] = coating once, I direct coating on affected part, 0.1 mg/ml
[24] = coating once, I direct coating on affected part, 1 mg/ml
[25] = coating once, I direct coating on affected part, 10 mg/ml
[26] = coating once, II coating after removing the scales, 0.1 mg/ml
[27] = coating once, II coating after removing the scales, 1 mg/ml
[28] = coating once, II coating after removing the scales, 10 mg/ml
[29] = twice coatings (second a week after the first), I direct coating on affected part, 0.1 mg/ml
[30] = twice coatings (second a week after the first), I direct coating on affected part, 1 mg/ml
[31] = twice coatings (second a week after the first), I direct coating on affected part, 10 mg/ml
[32] = twice coatings (second a week after the first), II coating after removing the scales, 0.1 mg/ml
[33] = twice coatings (second a week after the first), II coating after removing the scales, 1 mg/ml
[34] = twice coatings (second a week after the first), II coating after removing the scales, 10 mg/ml

CC1OC(CC(=O)O)CC2C(=O)c3cccc(O)c3C(=O)C12O (stereo not shown) [Nanaomycin B]
MIC [1]: 12.5 µg/mL (≈ 39 µM)
MIC [2]: 6.3 µg/mL (≈ 19.7 µM)
MIC [3]: > 100 µg/mL
MIC [4]: 6.3 µg/mL (≈ 19.7 µM)
MIC [5]: > 100 µg/mL
MIC ([6]; Staphylococcus aureus, summary of Table 1, read-out: growth inhibited at a concentration): 2 to 8 µg/mL (≈ 6.24 to 25 µM)
activity on Gram-positive bacteria ([6]; in words): active
activity of nanaomycin B itself [7]: no or little activity
MIC [8]: ≤ 0.1 µg/mL
MIC [9]: 7.8 µg/mL (≈ 24.4 µM)
MIC [10]: 25 µg/mL (≈ 78.1 µM)
MIC [11]: 12.5 µg/mL (≈ 39 µM)
activity against mycoplasma [12]: high activity; also recorded: especially strong activity
antifungal activity compared with deoxyfrenolicin [13]: slightly inferior
antifungal activity compared with ethylkalafunginate (ethylkalamycinate) [13]: superior
antifungal activity when the pH of the medium is higher than 6.4 ([13]; pH of medium higher than 6.4): stronger antifungal activity
MIC [14]: 3.1 µg/mL (≈ 9.68 µM)
MIC [15]: 12.5 µg/mL (≈ 39 µM)
therapeutic effect on chronic respiratory disease [16]: therapeutic effect
MIC [17]: 3.1 µg/mL (≈ 9.68 µM)
conversion into nanaomycin A in an acidic or neutral condition ([18]; acidic or neutral condition): gradually converted
conversion into nanaomycin A in an alkaline condition ([18]; alkaline condition): easily converted into nanaomycin A
MIC [19]: 0.05 µg/mL (≈ 0.156 µM)
Result after 1 week [20, 23]: ++
Result after 2 weeks [20, 23]: ++
Result after 3 weeks [20, 23]: +++
Result after 4 weeks [20, 23]: +++
Result after 1 week [20, 24]: +++
Result after 2 weeks [20, 24]: +++
Result after 3 weeks [20, 24]: +++
Result after 4 weeks [20, 24]: +++
Result after 1 week [20, 25]: +++
Result after 2 weeks [20, 25]: +++
Result after 3 weeks [20, 25]: +++
Result after 4 weeks [20, 25]: +++
Result after 1 week [20, 26]: +++
Result after 2 weeks [20, 26]: +++
Result after 3 weeks [20, 26]: +++
Result after 4 weeks [20, 26]: +++
Result after 1 week [20, 27]: +++
Result after 2 weeks [20, 27]: +++
Result after 3 weeks [20, 27]: +++
Result after 4 weeks [20, 27]: +++
Result after 1 week [20, 28]: +++
Result after 2 weeks [20, 28]: +++
Result after 3 weeks [20, 28]: +++
Result after 4 weeks [20, 28]: +++
Result after 1 week [20, 29]: ++
Result after 2 weeks [20, 29]: +++
Result after 3 weeks [20, 29]: +++
Result after 4 weeks [20, 29]: +++
Result after 1 week [20, 30]: ++
Result after 2 weeks [20, 30]: ++
Result after 3 weeks [20, 30]: +++
Result after 4 weeks [20, 30]: +++
Result after 1 week [20, 31]: +++
Result after 2 weeks [20, 31]: +++
Result after 3 weeks [20, 31]: +++
Result after 4 weeks [20, 31]: +++
Result after 1 week [20, 32]: +++
Result after 2 weeks [20, 32]: +++
Result after 3 weeks [20, 32]: +++
Result after 4 weeks [20, 32]: +++
Result after 1 week [20, 33]: +++
Result after 2 weeks [20, 33]: +++
Result after 3 weeks [20, 33]: +++
Result after 4 weeks [20, 33]: +++
Result after 1 week [20, 34]: +++
Result after 2 weeks [20, 34]: +++
Result after 3 weeks [20, 34]: +++
Result after 4 weeks [20, 34]: +++
MIC [21]: 25 µg/mL (≈ 78.1 µM)
MIC [22]: 2 µg/mL (≈ 6.24 µM)
